Results: patent US11739089B2, “Acetamido-phenyltetrazole derivatives and methods of using the same” (Athenex, Inc., priority 2020, dated 2023)
pEC50, pIC50: −log10 of the molar value. Where two headings read alike, the source gives them in different places.

Assays:
P-glycoprotein = P-glycoprotein (Homo sapiens (Human), UniProt P08183); assay: P-glycoprotein inhibitory activity: MTT cell growth assay in P-gp overexpressing MES-SA/DX5 cells with docetaxel or paclitaxel; format: cell-based; conditions: 3 days, with 100 nM docetaxel or 200 nM paclitaxel, MTT readout
Description: P-glycoprotein inhibitory activity may be determined by an assay wherein P-glycoprotein overexpressed cell lines are treated with increasing concentrations of a compound of the present disclosure and therapeutic agent for three days, followed by an MTT assay.
Cell growth percentage may be calculated with the following equation: Cell growth percentage=(T−T0)/(C−T0)×100%, wherein T is OD of the test well exposure to Compound; C is OD of the control well without Compound treatment; and T0 is OD at time zero.
A P-glycoprotein overexpressing cell line derived from the human uterine sarcoma cell line MES-SA (i.e., MES-SA/DX5 cells (ATCC)) was seeded by stepwise exposures to increasing concentrations of doxorubicin, in a 96-well plate at 6,500 cells/100 μL media (McCoy's 5A+10% FBS) in each well. The cells were incubated overnight at 37° C. 5% CO2. Compounds were diluted in a separate 96-well plate to yield 11× of final concentration (final Compound concentrations were 0, 5, 20, 80, 320, and 1280 nM and the final docetaxel concentration was 100 nM or the final paclitaxel concentration was 200 nM). DMSO was used as a negative control and known P-glycoprotein inhibitor, encequidar methane sulfonic acid monohydrate (HM30181A), was used as a positive control. 10 μL of the 11× dilutions was added to the appropriate well, P-glycoprotein inhibition wells comprised Compound+docetaxel (or Compound+paclitaxel). The compound toxicity wells comprised 1280 nM Compound+10 μL of culture media. Treated the cells were incubated for 3 days at 37° C. 5% CO2.
To value (reflecting the starting number of cells upon Compound treatment) of 3 wells of cells was determined by performing the following steps 1-4 as described below.
1. 10 μL MTT (5 mg/mL in PBS) was added to each well and incubated for 1.5 hours at 37° C. 5% CO2.
2. Culture media was removed and 100 μL of DMSO was added to each well.
3. The plate was gently shook until all purple MTT formazan crystals were dissolved. OD540 was then measured using microplate reader.
4. Cell growth percentage was calculated with the following equation: Cell growth percentage=(T−T0)/(C−T0)×100%, wherein T is OD of the test well exposure to Compound; C is OD of the control well without Compound treatment; and T0 is OD at time zero.

CYP3A4 = CYP3A4 (Homo sapiens (Human), UniProt P08684); assay: CYP3A4 inhibitory activity: Luciferin-IPA (P450-Glo) assay with human liver microsome
Description: Cytochrome P450 activity may be determined by a P450-Glo™ assay (Promega) with human liver microsomes wherein the compounds of the present disclosure are dosed at different concentrations in buffer and incubated. Dose-response curve and IC50 data may be obtained and fit to a nonlinear regression model using GraphPad Prism software (v6.0).
The standard final Compound concentrations were 37, 111, 333, 1000, and 3000 nM. 12.5 μL of the Compound dilutions were transferred to a white 96-well plate. 1450 μL (enough for a whole plate) of 4× assay buffer (400 mM potassium phosphate buffer (10 mL 1M potassium phosphate buffer: 8.02 mL 1M K2HPO4+1.98 mL 1M KH2PO4 (1.4 g K2HPO4+0.27 g KH2PO4 in 10 mL H2O), 32 μM Luciferin-IPA (Promega V9002)) 580 μl of 1 M K3PO4 buffer, 870 μL H2O, 14 μL of 3 mM Luciferin-IPA, and 18 μL of human liver microsome (Sigma M0317-1VL) was made. 12.5 μL of 4× assay buffer was added to each well. For the well of blank control, 12.5 μL of 4× assay buffer without liver microsome was added. The plate was incubated at room temperature for 15 minutes. 2.75 mL NADPH buffer was made as follows: 2.42 mL H2O, 275 μL solution A and 55 μL solution B (NADPH regeneration system, Promega V9510). 25 μL of the buffer was added to each well. The plates were incubated at 37° C. for 11 minutes. 50 μL of luciferin detection reagent (Promega V9002) was added and the plates were incubated at room temperature for 5 minutes. The plate was read with a luminometer.
The dose-response curve and IC50 were obtained by fitting data to nonlinear regression model using GraphPad Prism software (v6.0).

CYP3A4, sequence (P08684 whole entry): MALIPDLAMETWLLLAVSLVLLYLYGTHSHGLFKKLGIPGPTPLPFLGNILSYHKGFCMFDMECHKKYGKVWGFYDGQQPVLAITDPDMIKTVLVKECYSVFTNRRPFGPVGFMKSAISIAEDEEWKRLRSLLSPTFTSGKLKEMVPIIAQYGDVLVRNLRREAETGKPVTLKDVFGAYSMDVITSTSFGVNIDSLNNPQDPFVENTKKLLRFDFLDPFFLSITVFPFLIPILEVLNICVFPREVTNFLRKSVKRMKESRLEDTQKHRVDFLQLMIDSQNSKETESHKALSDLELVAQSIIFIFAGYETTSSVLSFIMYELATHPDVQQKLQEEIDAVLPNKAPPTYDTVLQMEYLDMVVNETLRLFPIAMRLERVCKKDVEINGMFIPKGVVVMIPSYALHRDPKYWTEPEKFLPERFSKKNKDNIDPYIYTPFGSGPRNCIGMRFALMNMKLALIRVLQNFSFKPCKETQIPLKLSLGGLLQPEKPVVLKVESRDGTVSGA
P-glycoprotein, sequence (P08183 whole entry): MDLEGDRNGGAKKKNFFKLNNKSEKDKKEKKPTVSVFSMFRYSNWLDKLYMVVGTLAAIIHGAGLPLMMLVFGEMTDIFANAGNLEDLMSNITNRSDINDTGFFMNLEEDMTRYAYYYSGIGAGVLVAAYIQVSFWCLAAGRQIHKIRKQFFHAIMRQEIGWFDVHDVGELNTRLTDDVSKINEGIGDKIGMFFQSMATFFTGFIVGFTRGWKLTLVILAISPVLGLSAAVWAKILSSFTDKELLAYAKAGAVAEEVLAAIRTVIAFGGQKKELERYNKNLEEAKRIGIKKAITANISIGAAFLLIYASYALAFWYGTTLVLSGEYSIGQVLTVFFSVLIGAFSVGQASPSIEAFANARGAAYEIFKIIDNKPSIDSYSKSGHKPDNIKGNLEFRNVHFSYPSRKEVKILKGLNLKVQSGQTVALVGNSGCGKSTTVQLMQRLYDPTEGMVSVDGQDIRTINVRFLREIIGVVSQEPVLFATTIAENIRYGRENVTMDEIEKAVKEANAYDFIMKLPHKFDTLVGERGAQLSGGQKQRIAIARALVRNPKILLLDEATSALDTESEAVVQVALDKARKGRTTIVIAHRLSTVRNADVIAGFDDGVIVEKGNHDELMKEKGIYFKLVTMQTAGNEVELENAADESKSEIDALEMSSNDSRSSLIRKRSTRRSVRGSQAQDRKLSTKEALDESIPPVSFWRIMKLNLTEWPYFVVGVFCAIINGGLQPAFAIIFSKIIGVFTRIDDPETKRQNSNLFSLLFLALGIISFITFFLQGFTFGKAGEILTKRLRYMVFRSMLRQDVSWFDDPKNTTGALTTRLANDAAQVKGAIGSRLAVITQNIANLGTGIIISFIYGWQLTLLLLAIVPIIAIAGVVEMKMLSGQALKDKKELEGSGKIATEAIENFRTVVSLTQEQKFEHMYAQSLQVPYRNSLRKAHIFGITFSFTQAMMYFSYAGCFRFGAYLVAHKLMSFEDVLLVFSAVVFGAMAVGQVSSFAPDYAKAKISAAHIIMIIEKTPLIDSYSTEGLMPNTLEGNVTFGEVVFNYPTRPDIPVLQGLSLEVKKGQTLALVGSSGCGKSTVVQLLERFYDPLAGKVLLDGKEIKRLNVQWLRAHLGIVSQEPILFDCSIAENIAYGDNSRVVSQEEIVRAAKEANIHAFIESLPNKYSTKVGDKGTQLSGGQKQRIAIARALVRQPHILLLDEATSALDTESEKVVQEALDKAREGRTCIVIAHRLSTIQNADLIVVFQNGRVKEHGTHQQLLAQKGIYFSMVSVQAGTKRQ

SMILES	pEC50 (P-glycoprotein)	pIC50 (CYP3A4; human, microsomes, 11 min)	pIC50 (CYP3A4)
COc1cc2c(cc1OC)CN(CCc1ccc(-n3nnc(-c4cc(OC)c(OC)cc4NC(=O)c4cc(=O)c5cc(-n6ccnc6)ccc5o4)n3)cc1)CC2 [Compound 20, N-(2-(2-(4-(2-(6,7-Dimethoxy-3,4-dihydroisoquinolin-2(1H)-yl)ethyl)phenyl)-2H-tetrazol-5-yl)-4,5-dimethoxyphenyl)-6-(1H-imidazol-1-yl)-4-oxo-4H-chromene-2-carboxamide]	< 6.00	< 6.00	–
COc1cc2c(cc1OC)CN(CCc1ccc(-n3nnc(-c4cc(OC)c(OC)cc4NC(=O)c4ccc(-c5ccncc5)cc4)n3)cc1)CC2 [Compound 21, N-(2-(2-(4-(2-(6,7-Dimethoxy-3,4-dihydroisoquinolin-2(1H)-yl)ethyl)phenyl)-2H-tetrazol-5-yl)-4,5-dimethoxyphenyl)-4-(pyridin-4-yl)benzamide]	> 7.00	< 6.00	–
COc1cc2c(cc1OC)CN(CCc1ccc(-n3nnc(-c4cc(OC)c(OC)cc4NC(=O)c4ccc(-c5cccnc5)cc4)n3)cc1)CC2 [Compound 22, N-(2-(2-(4-(2-(6,7-Dimethoxy-3,4-dihydroisoquinolin-2(1H)-yl)ethyl)phenyl)-2H-tetrazol-5-yl)-4,5-dimethoxyphenyl)-4-(pyridin-3-yl)benzamide]	6.60 to 7.00	< 6.00	–
COc1cc2c(cc1OC)CN(CCc1ccc(-n3nnc(-c4cc(OC)c(OC)cc4NC(=O)c4ccc(-n5ccnc5)cc4)n3)cc1)CC2 [Compound 23, N-(2-(2-(4-(2-(6,7-Dimethoxy-3,4-dihydroisoquinolin-2(1H)-yl)ethyl)phenyl)-2H-tetrazol-5-yl)-4,5-dimethoxyphenyl)-4-(1H-imidazol-1-yl)benzamide]	6.30 to 6.60	–	6.00 to 6.30
COc1cc2c(cc1OC)CN(CCc1ccc(-n3nnc(-c4cc(Oc5cccnc5)ccc4NC(=O)c4cc(=O)c5ccccc5o4)n3)cc1)CC2 [Compound 24, N-(2-(2-(4-(2-(6,7-Dimethoxy-3,4-dihydroisoquinolin-2(1H)-yl)ethyl)phenyl)-2H-tetrazol-5-yl)-4-(pyridin-3-yloxy)phenyl)-4-oxo-4H-chromene-2-carboxamide]	> 7.00	< 6.00	–
COc1cc2c(cc1OC)CN(CCc1ccc(-n3nnc(-c4cc(Oc5ccncc5)ccc4NC(=O)c4cc(=O)c5ccccc5o4)n3)cc1)CC2 [Compound 25, N-(2-(2-(4-(2-(6,7-Dimethoxy-3,4-dihydroisoquinolin-2(1H)-yl)ethyl)phenyl)-2H-tetrazol-5-yl)-4-(pyridin-4-yloxy)phenyl)-4-oxo-4H-chromene-2-carboxamide]	6.00 to 6.30	< 6.00	–
COc1cc2c(cc1OC)CN(CCc1ccc(-n3nnc(-c4cc(OCc5ccncc5)ccc4NC(=O)c4cc(=O)c5ccccc5o4)n3)cc1)CC2 [Compound 26, N-(2-(2-(4-(2-(6,7-Dimethoxy-3,4-dihydroisoquinolin-2(1H)-yl)ethyl)phenyl)-2H-tetrazol-5-yl)-4-(pyridin-4-ylmethoxy)phenyl)-4-oxo-4H-chromene-2-carboxamide]	> 7.00	< 6.00	–
COc1cc2c(cc1OC)CN(CCc1ccc(-n3nnc(-c4cc(OCc5cccnc5)ccc4NC(=O)c4cc(=O)c5ccccc5o4)n3)cc1)CC2 [Compound 27, N-(2-(2-(4-(2-(6,7-Dimethoxy-3,4-dihydroisoquinolin-2(1H)-yl)ethyl)phenyl)-2H-tetrazol-5-yl)-4-(pyridin-3-ylmethoxy)phenyl)-4-oxo-4H-chromene-2-carboxamide]	> 7.00	< 6.00	–
COc1cc2c(cc1OC)CN(CCc1ccc(-n3nnc(-c4cc(OCCc5cccnc5)ccc4NC(=O)c4cc(=O)c5ccccc5o4)n3)cc1)CC2 [Compound 28, N-(2-(2-(4-(2-(6,7-Dimethoxy-3,4-dihydroisoquinolin-2(1H)-yl)ethyl)phenyl)-2H-tetrazol-5-yl)-4-(2-(pyridin-3-yl)ethoxy)phenyl)-4-oxo-4H-chromene-2-carboxamide]	6.60 to 7.00	–	6.00 to 6.30
COc1cc2c(cc1OC)CN(CCc1ccc(-n3nnc(-c4cc(OCc5ccccc5)c(OC)cc4NC(=O)c4cc(=O)c5ccccc5o4)n3)cc1)CC2 [Compound 29, N-(4-(Benzyloxy)-2-(2-(4-(2-(6,7-dimethoxy-3,4-dihydroisoquinolin-2(1H)-yl)ethyl)phenyl)-2H-tetrazol-5-yl)-5-methoxyphenyl)-4-oxo-4H-chromene-2-carboxamide]	> 7.00	< 6.00	–
COc1cc2c(cc1OC)CN(CCc1ccc(-n3nnc(-c4cc(OCc5cccnc5)c(OC)cc4NC(=O)c4cc(=O)c5ccccc5o4)n3)cc1)CC2 [Compound 30, N-(2-(2-(4-(2-(6,7-Dimethoxy-3,4-dihydroisoquinolin-2(1H)-yl)ethyl)phenyl)-2H-tetrazol-5-yl)-5-methoxy-4-(pyridin-3-ylmethoxy)phenyl)-4-oxo-4H-chromene-2-carboxamide]	> 7.00	< 6.00	–
COc1cc2c(cc1OC)CN(CCc1ccc(-n3nnc(-c4cc(OC)c(OC)cc4NC(=O)c4cc(=O)c5ccccc5o4)n3)cc1)CC2 [Encequidar methanesulfonate monohydrate, reference compound]	> 7.00	< 6.00	–
